Assay results from patent US7517884B2 (Kalypsys Inc., priority 1998, dated 2009).

Tests used:
Type in all cases: cell-based, murine and human
Details in all cases: GAL4-PPAR LBD chimera
[1] = biological target: T1, PPAR-delta (UniProt Q03181); assay: PPAR-delta transactivation assay (GAL4 chimera, luciferase reporter) in CV-1 cells
T1 sequence (Q03181 1-441): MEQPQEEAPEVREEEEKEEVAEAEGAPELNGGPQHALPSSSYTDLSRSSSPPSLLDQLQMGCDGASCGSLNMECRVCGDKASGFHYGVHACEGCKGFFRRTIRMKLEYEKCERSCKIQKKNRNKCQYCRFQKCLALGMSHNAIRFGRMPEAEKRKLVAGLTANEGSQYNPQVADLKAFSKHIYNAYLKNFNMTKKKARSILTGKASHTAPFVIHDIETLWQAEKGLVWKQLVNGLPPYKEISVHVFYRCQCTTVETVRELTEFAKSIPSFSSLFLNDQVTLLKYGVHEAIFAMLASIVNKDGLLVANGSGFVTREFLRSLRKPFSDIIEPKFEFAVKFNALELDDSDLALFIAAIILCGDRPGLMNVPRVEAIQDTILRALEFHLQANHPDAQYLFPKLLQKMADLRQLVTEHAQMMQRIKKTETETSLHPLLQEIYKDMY
Summary of the method: (§1)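 CV-1 cells transiently transfected with murine or human PPAR-alpha, -gamma or -delta ligand-binding domain fused to GAL4 DNA-binding domain plus a GAL4-site luciferase reporter. After replating in phenol-red-free DME with 5% delipidated calf serum, cells were exposed to compound 20-24 h; luciferase read-out gave EC50.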

[2] = biological target: T2, PPAR-gamma (UniProt P37231); assay: PPAR-gamma transactivation assay (GAL4 chimera, luciferase reporter) in CV-1 cells
T2 sequence (P37231 1-505): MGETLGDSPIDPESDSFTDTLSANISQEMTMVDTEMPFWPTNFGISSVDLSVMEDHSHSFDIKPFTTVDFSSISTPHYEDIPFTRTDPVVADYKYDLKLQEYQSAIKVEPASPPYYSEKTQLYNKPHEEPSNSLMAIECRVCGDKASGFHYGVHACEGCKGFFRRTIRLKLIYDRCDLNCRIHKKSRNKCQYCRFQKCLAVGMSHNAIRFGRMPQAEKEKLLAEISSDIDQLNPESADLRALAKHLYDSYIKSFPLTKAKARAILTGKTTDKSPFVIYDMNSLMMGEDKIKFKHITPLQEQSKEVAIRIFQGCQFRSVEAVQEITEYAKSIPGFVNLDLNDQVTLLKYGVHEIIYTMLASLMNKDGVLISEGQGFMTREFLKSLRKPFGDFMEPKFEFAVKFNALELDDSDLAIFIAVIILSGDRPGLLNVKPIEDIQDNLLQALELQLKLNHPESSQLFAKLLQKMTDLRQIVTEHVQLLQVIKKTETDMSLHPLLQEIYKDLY
Summary of the method: as §1

[3] = biological target: T3, PPAR-alpha (UniProt Q07869); assay: PPAR-alpha transactivation assay (GAL4 chimera, luciferase reporter) in CV-1 cells
T3 sequence (Q07869 1-468): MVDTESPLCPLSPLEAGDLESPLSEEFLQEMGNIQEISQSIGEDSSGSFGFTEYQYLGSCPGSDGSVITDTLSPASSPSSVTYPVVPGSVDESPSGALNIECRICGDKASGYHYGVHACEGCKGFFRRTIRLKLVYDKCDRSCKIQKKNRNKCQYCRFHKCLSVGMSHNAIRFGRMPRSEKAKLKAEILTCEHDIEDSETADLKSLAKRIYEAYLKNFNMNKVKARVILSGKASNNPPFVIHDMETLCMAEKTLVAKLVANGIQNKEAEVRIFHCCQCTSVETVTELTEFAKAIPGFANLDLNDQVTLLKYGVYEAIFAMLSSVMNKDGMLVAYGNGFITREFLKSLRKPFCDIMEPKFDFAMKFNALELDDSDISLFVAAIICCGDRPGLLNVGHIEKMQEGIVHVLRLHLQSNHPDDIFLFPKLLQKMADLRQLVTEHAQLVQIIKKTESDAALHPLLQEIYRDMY
Summary of the method: as §1

SMILES | EC50 [1] [µM] | EC50 [2] [µM] | EC50 [3] [µM]
C[C@@H]1CN(c2ccc(OC(F)(F)F)cc2)C[C@H](C)N1S(=O)(=O)c1ccc2scc(CC(=O)O)c2c1 [Example 100, {5-[cis-2,6-dimethyl-4-(4-trifluoromethoxy-phenyl)-piperazine-1-sulfonyl]-benzo[b]thiophen-3-yl}-acetic acid] | < 5 | 5 to 100 | 5 to 100
C[C@@H]1CN(c2ccc(SC(F)(F)F)cc2)C[C@H](C)N1S(=O)(=O)c1cccc2c1CC(C(=O)O)C2 (stereo partly drawn) [Example 101, 4-[cis-2,6-dimethyl-4-(4-trifluoromethylsulfanyl-phenyl)-piperazine-1-sulfonyl]-indan-2-carboxylic acid] | < 5 | 5 to 100 | 5 to 100
O=C(O)C1Cc2cccc(S(=O)(=O)N3CCN(c4ccc(OC(F)(F)F)cc4)CC3)c2C1 (stereo not drawn) [Example 102, 4-[4-(-trifluoromethoxy-phenyl)-piperazine-1-sulfonyl]-indan-2-carboxylic acid] | < 5 | < 5 | < 5
C[C@@H]1CN(c2ccc(Cl)cc2Cl)C[C@H](C)N1S(=O)(=O)c1ccc2c(c1)C(C(=O)O)CC2 (stereo partly drawn) [Example 103, 6-[4-(2,4-dichloro-phenyl)-cis-2,6-dimethyl-piperazine-1-sulfonyl]-indan-1-carboxylic acid] | < 5 | 5 to 100 | 5 to 100
C[C@@H]1CN(c2ccc(C(F)(F)F)cc2)C[C@H](C)N1S(=O)(=O)c1ccc2c(c1)C(C(=O)O)CC2 (stereo partly drawn) [Example 104, 6-[cis-2,6-dimethyl-4-(4-trifluoromethyl-phenyl)-piperazine-1-sulfonyl]-indan-1-carboxylic acid] | < 5 | 5 to 100 | < 5
C[C@@H]1CN(c2ccc(C(F)(F)F)cc2)C[C@H](C)N1S(=O)(=O)c1cccc2c1CC(C(=O)O)C2 (stereo partly drawn) [Example 105, 4-[cis-2,6-Dimethyl-4-(4-trifluoromethyl-phenyl)-piperazine-1-sulfonyl]-indan-2-carboxylic acid] | < 5 | 5 to 100 | 5 to 100
C[C@@H]1CN(c2ccc(C(C)(C)C)cc2)C[C@H](C)N1S(=O)(=O)c1cccc2c1CC(C(=O)O)C2 (stereo partly drawn) [Example 106, 4-[4-(4-tert-butyl-phenyl)-cis-2,6-dimethyl-piperazine-1-sulfonyl]-indan-2-carboxylic acid] | < 5 | 5 to 100 | 5 to 100
C[C@@H]1CN(c2cc(Cl)c(C(F)(F)F)cn2)C[C@H](C)N1S(=O)(=O)c1cccc2c1CC(C(=O)O)C2 (stereo partly drawn) [Example 107, 4-[4-(4-Chloro-5-trifluoromethyl-pyridin-2-yl)-cis-2,6-dimethylpiperazine-1-sulfonyl]-indan-2-carboxylic acid] | < 5 | > 100 | > 100
C[C@@H]1CN(c2ccc(OC(F)(F)F)cc2)C[C@H](C)N1S(=O)(=O)c1cccc2c1CC(C(N)=O)C2 (stereo partly drawn) [Example 108, 4-[cis-2,6-dimethyl-4-(4-trifluoromethoxy-phenyl)-piperazine-1-sulfonyl]-indan-2-carboxylic acid amide] | < 5 | 5 to 100 | 5 to 100
C[C@@H]1CN(c2ccc(OC(F)(F)F)cc2)C[C@H](C)N1S(=O)(=O)c1cccc2c1CC(c1nnn[nH]1)C2 (stereo partly drawn) [Example 109, cis-2,6-dimethyl-1-[2-(1H-tetrazol-5-yl)-indane-4-sulfonyl]-4-(4-trifluoromethoxy-phenyl)-piperazine] | < 5 | 5 to 100 | > 100
C[C@@H]1CN(Cc2ccc(OC(F)(F)F)cc2)C[C@H](C)N1S(=O)(=O)c1ccc2scc(CC(=O)O)c2c1 [Example 110, {5-[cis-2,6-dimethyl-4-(4-trifluoromethoxy-benzyl)-piperazine-1-sulfonyl]-benzo[b]thiophen-3-yl}-acetic acid] | < 5 | 5 to 100 | > 100
C[C@@H]1CN(Cc2ccc(Cl)c(Cl)c2)C[C@H](C)N1S(=O)(=O)c1cccc2c1CC(C(=O)O)C2 (stereo partly drawn) [Example 111] | < 5 | 5 to 100 | > 100
O=C(O)C1Cc2cccc(S(=O)(=O)N3CCN(c4cccc(OCC(F)(F)F)c4)CC3)c2C1 (stereo not drawn) [Example 112, 4-{4-[3-(2,2,2-trifluoro-ethoxy)-phenyl]-piperazine-1-sulfonyl}-indan-2-carboxylic acid] | 5 to 100 | 5 to 100 | 5 to 100

Other lines, results leading:

EC50 [1] [µM] | EC50 [2] [µM] | EC50 [3] [µM] | SMILES
< 5 | 5 to 100 | 5 to 100 | O=C(O)C1Cc2cccc(S(=O)(=O)N3CCN(c4cccc(OC(F)(F)F)c4)CC3)c2C1 (stereo not drawn) [Example 113, 4-[4-(3-Trifluomethoxy-phenyl)-piperazine-1-sulfonyl]-indan-2-carboxylic acid]
5 to 100 | 5 to 100 | 5 to 100 | O=C(O)C1Cc2cccc(S(=O)(=O)N3CCN(c4ccc(OCC(F)(F)F)cc4)CC3)c2C1 (stereo not drawn) [Example 114, 4-{4-[4-(2,2,2-Trifluoro-ethoxy)-phenyl]-piperazine-1-sulfonyl}-indan-2-carboxylic acid]
< 5 | 5 to 100 | > 100 | C[C@@H]1CN(c2cccc(OC(F)(F)F)c2)C[C@H](C)N1S(=O)(=O)c1cccc2c1CC(C(=O)O)C2 (stereo partly drawn) [Example 115, 4-[cis-2,6-dimethyl-4-(3-trifluoromethoxyphenyl)piperazin-1-ylsulfonyl]-2,3-dihydro-1H-indene-2-carboxylic acid]
< 5 | 5 to 100 | 5 to 100 | C[C@H]1CN(S(=O)(=O)c2cccc3c2CC(C(=O)O)C3)[C@@H](C)CN1c1ccc(C(F)(F)F)cn1 (stereo partly drawn) [Example 116, 4-[2S,5S-dimethyl-4-(5-trifluoromethyl-pyridin-2-yl)-piperazine-1-sulfonyl]-indan-2(R,S)-carboxylic acid]
< 5 | 5 to 100 | 5 to 100 | O=C(O)C1Cc2cccc(S(=O)(=O)N3C4CCCC3CN(c3ccc(OC(F)(F)F)cc3)C4)c2C1 (stereo not drawn) [Example 117, 4-[3-(4-trifluoromethoxy-phenyl)-3,9-diaza-bicyclo[3.3.1]nonane-9-sulfonyl]-indan-2-carboxylic acid]
< 5 | > 100 | > 100 | C[C@@H]1CN(c2ccc(Cl)c(Br)c2)C[C@H](C)N1S(=O)(=O)c1cccc2c1CC(C(=O)O)C2 (stereo partly drawn) [Example 120, 4-(4-(3-bromo-4-chlorophenyl)-cis-2,6-dimethylpiperazin-1-ylsulfonyl)-2,3-dihydro-1H-indene-2-carboxylic acid]
< 5 | > 100 | 5 to 100 | C[C@@H]1CN(c2cc(F)c(C(F)(F)F)c(F)c2)C[C@H](C)N1S(=O)(=O)c1cccc2c1CC(C(=O)O)C2 (stereo partly drawn) [Example 121, 4-(4-(3,5-Difluoro-4-(trifluoromethyl)phenyl)-cis-2,6-dimethylsulfonyl)-2,3-dihydro-1H-indene-2-carboxylic acid]
< 5 | > 100 | > 100 | C[C@@H]1CN(c2ccc(C(F)(F)F)c(Br)c2)C[C@H](C)N1S(=O)(=O)c1cccc2c1CC(C(=O)O)C2 (stereo partly drawn) [Example 122, 4-(4-(3-Bromo-4-(trifluoromethyl)phenyl)-cis-2,6-dimethylpiperazin-1-ylsulfonyl)-2,3-dihydro-1H-indene-2-carboxylic acid]
5 to 100 | > 100 | > 100 | C[C@@H]1CN(c2cc(F)cc(F)c2Cl)C[C@H](C)N1S(=O)(=O)c1cccc2c1CC(C(=O)O)C2 (stereo partly drawn) [Example 123, 4-(4-(2-Chloro-3,5-difluorophenyl)-cis-2,6-dimethylpiperazin-1-ylsulfonyl)-2,3-dihydro-1H-indene-2-carboxylic acid]
